In PubChem BioAssay (NCI):
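48-hour exposure; five concentrations; linearly interpolated endpoints. Abbreviation: GI50, concentration required for 50% inhibition of growth. At the TGI there is no net growth.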

Legend:
Assay in all cases: NCI tumour cell line growth inhibition, 48 h
SK-MEL-28 melanoma = tested on: SK-MEL-28 melanoma
SF-268 CNS = tested on: SF-268 CNS
KM20L2 colon = tested on: KM20L2 colon
OVCAR-3 ovarian = tested on: OVCAR-3 ovarian
RPMI-8226 leukemia = tested on: RPMI-8226 leukemia
KM12 colon = tested on: KM12 colon
A498 renal = tested on: A498 renal
HOP-18 NSCLC = tested on: HOP-18 NSCLC
P388 leukemia = tested on: P388 leukemia
UO-31 renal = tested on: UO-31 renal
M19-MEL melanoma = tested on: M19-MEL melanoma
OVCAR-4 ovarian = tested on: OVCAR-4 ovarian
DLD-1 colon = tested on: DLD-1 colon
NCI/ADR-RES ovarian = tested on: NCI/ADR-RES ovarian
MALME-3M melanoma = tested on: MALME-3M melanoma
MCF7 breast = tested on: MCF7 breast
CCRF-CEM leukemia = tested on: CCRF-CEM leukemia
A549 NSCLC = tested on: A549 NSCLC
OVCAR-8 ovarian = tested on: OVCAR-8 ovarian
NCI-H522 lung = tested on: NCI-H522 lung
DMS 114 small cell lung = tested on: DMS 114 small cell lung
P388/ADR leukemia = tested on: P388/ADR leukemia
HL-60(TB) leukemia = tested on: HL-60(TB) leukemia
DMS 273 small cell lung = tested on: DMS 273 small cell lung
MOLT-4 leukemia = tested on: MOLT-4 leukemia
SN12C renal = tested on: SN12C renal
IGROV1 ovarian = tested on: IGROV1 ovarian
SNB-78 CNS = tested on: SNB-78 CNS
SNB-19 CNS = tested on: SNB-19 CNS
SW-620 colon = tested on: SW-620 colon
NCI-H460 lung = tested on: NCI-H460 lung
HCT-116 colon = tested on: HCT-116 colon
NCI-H23 lung = tested on: NCI-H23 lung
CAKI-1 renal = tested on: CAKI-1 renal
SK-OV-3 ovarian = tested on: SK-OV-3 ovarian
HOP-62 NSCLC = tested on: HOP-62 NSCLC
COLO 205 colon = tested on: COLO 205 colon
EKVX NSCLC = tested on: EKVX NSCLC
SK-MEL-5 melanoma = tested on: SK-MEL-5 melanoma
HT29 colon = tested on: HT29 colon
SF-539 CNS = tested on: SF-539 CNS
SK-MEL-2 melanoma = tested on: SK-MEL-2 melanoma
HOP-92 NSCLC = tested on: HOP-92 NSCLC
SNB-75 CNS = tested on: SNB-75 CNS
SN12K1 renal = tested on: SN12K1 renal
U251 CNS = tested on: U251 CNS
OVCAR-5 ovarian = tested on: OVCAR-5 ovarian
RXF 393 renal = tested on: RXF 393 renal
HCT-15 colon = tested on: HCT-15 colon
LOX IMVI melanoma = tested on: LOX IMVI melanoma
UACC-62 melanoma = tested on: UACC-62 melanoma
HCC-2998 colon = tested on: HCC-2998 colon
UACC-257 melanoma = tested on: UACC-257 melanoma
SF-295 CNS = tested on: SF-295 CNS
K-562 leukemia = tested on: K-562 leukemia
NCI-H226 lung = tested on: NCI-H226 lung

## COC(=O)C1C(O)C(C)C(O)C(C)(O)/C=C/C=C(C)C(=O)Nc2c(C)c(OC(C)=O)c3c(c2O)C(=O)C(C)=C2OCOC(=C23)C(C)=CC(C)(O)C(O)C(C)C1OC(C)=O (stereo not drawn)
SK-MEL-28 melanoma
  GI50: 33.4 µM
  TGI: 59.7 µM
SF-268 CNS
  GI50: 39.9 µM
  TGI: 75.8 µM
KM20L2 colon
  TGI: > 88.6 µM
OVCAR-3 ovarian
  GI50: 22.4 µM
  TGI: 63.1 µM
RPMI-8226 leukemia
  GI50: 27.1 µM
  TGI: 54.9 µM
KM12 colon
  GI50: 19.2 µM
  TGI: 35.2 µM
A498 renal
  TGI: > 56.2 µM
HOP-18 NSCLC
  TGI: > 100 µM
P388 leukemia
  TGI: 52.2 µM
UO-31 renal
  TGI: > 100 µM
M19-MEL melanoma
  TGI: 31.8 µM
OVCAR-4 ovarian
  TGI: > 100 µM
DLD-1 colon
  TGI: 43.3 µM
NCI/ADR-RES ovarian
  TGI: > 100 µM
MALME-3M melanoma
  GI50: 22.6 µM
  TGI: 43.8 µM
MCF7 breast
  TGI: 34.5 µM
CCRF-CEM leukemia
  GI50: 28.1 µM
  TGI: 55.8 µM
A549 NSCLC
  TGI: > 100 µM
OVCAR-8 ovarian
  GI50: 42.9 µM
  TGI: 92.1 µM
NCI-H522 lung
  TGI: 56 µM
DMS 114 small cell lung
  TGI: 25.4 µM
P388/ADR leukemia
  TGI: > 83.1 µM
HL-60(TB) leukemia
  TGI: 49.8 µM
DMS 273 small cell lung
  TGI: > 100 µM
MOLT-4 leukemia
  TGI: 54.8 µM
SN12C renal
  TGI: 47.9 µM
IGROV1 ovarian
  TGI: 80.5 µM
SNB-78 CNS
  GI50: 37.9 µM
  TGI: 91.2 µM
SNB-19 CNS
  TGI: > 100 µM
SW-620 colon
  GI50: 31.6 µM
  TGI: 63.3 µM
NCI-H460 lung
  GI50: 19.9 µM
  TGI: 38.6 µM
HCT-116 colon
  GI50: 18.1 µM
  TGI: 34.5 µM
NCI-H23 lung
  TGI: 52.7 µM
CAKI-1 renal
  GI50: 37.1 µM
  TGI: 86.9 µM
SK-OV-3 ovarian
  TGI: > 100 µM
HOP-62 NSCLC
  TGI: > 100 µM
COLO 205 colon
  TGI: 39.3 µM
EKVX NSCLC
  TGI: 67.8 µM
SK-MEL-5 melanoma
  TGI: > 78.5 µM
HT29 colon
  TGI: > 92.7 µM
SF-539 CNS
  TGI: 76.4 µM
SK-MEL-2 melanoma
  TGI: 39.7 µM
HOP-92 NSCLC
  GI50: 15.9 µM
  TGI: 35.1 µM
SNB-75 CNS
  TGI: > 63.1 µM
SN12K1 renal
  TGI: 60.8 µM
U251 CNS
  TGI: > 100 µM
OVCAR-5 ovarian
  TGI: > 100 µM
RXF 393 renal
  TGI: 33.4 µM
HCT-15 colon
  TGI: 69.6 µM
LOX IMVI melanoma
  TGI: 41.2 µM
UACC-62 melanoma
  TGI: 47.7 µM
HCC-2998 colon
  TGI: 85.5 µM
UACC-257 melanoma
  GI50: 20.1 µM
  TGI: 44.8 µM
SF-295 CNS
  TGI: > 100 µM
K-562 leukemia
  GI50: 30.7 µM
  TGI: 60.5 µM
NCI-H226 lung
  GI50: 50.7 µM
  TGI: > 100 µM
